Measured values from patent US7645751B2, “Mandelic acid derivatives and their use as thrombin inhibitors” (AstraZeneca, priority 2000, dated 2010).
Counter-ions that a name gives are not always drawn.

What was measured:
[1] = Test G: determination of in vitro stability in liver microsomes (rat); format: in vitro ADME; conditions: 37° C., up to 60 min, NADH/NADPH
Description: (§1) Liver microsomes are prepared from Sprague-Dawley rats and human liver samples according to internal SOPs. The compounds are incubated at 37° C. at a total microsome protein concentration of 3 mg/mL in a 0.05 mol/L TRIS buffer at pH 7.4, in the presence of the cofactors NADH (2.5 mmol/L) and NADPH (0.8 mmol/L). The initial concentration of compound is 5 or 10 μmol/L. Samples are taken for analysis up to 60 minutes after the start of the incubation. The enzymatic activity in the collected sample is immediately stopped by adding 20% […] at a volume corresponding to 3.3% of the total sample volume. The concentration of compound remaining (FINAL CONC) in the 60 min. sample is determined by means of LCMS using a sample collected at zero time as reference (START CONC). The % of degraded thrombin inhibitor is calculated as: […]

[2] = Test G: determination of in vitro stability in liver microsomes (human); format: in vitro ADME; conditions: 37° C., up to 60 min, NADH/NADPH
Description: as §1

| Molecule | melting point [°C] | conversion to the corresponding active inhibitor (free amidine) in liver microsomes from rats [1] | conversion to the corresponding active inhibitor (free amidine) in liver microsomes from humans [2] |
| --- | --- | --- | --- |
| N=C(N)c1cnc(CNC(=O)[C@@H]2CCN2C(=O)[C@H](O)c2cc(Cl)cc(OC(F)F)c2)nc1 (as salt: TFA) [Example 36, Ph(3-Cl)(5-OCHF2)—(R)CH(OH)C(O)-Aze-NH—CH2-((5-amidino)-2-pyrimidinyl)] | 86 to 87 |  |  |
| NC(=NO)c1ccc(CNC(=O)[C@@H]2CCN2C(=O)[C@H](O)c2cc(Cl)cc(OC(F)F)c2)cc1 [Example 2, Ph(3-Cl)(5-OCHF2)—(R)CH(OH)C(O)-Aze-Pab(OH)] |  | converted to the corresponding active inhibitor (free amidine) | converted to the corresponding active inhibitor (free amidine) |
| CON=C(N)c1ccc(CNC(=O)[C@@H]2CCN2C(=O)[C@H](O)c2cc(Cl)cc(OC(F)(F)F)c2)cc1 [Example 7, Ph(3-Cl)(5-OCF3)—(R)CH(OH)C(O)-Aze-Pab(OMe)] |  | converted to the corresponding active inhibitor (free amidine) | converted to the corresponding active inhibitor (free amidine) |
| CON=C(N)c1ccc(CNC(=O)[C@@H]2CCN2C(=O)[C@H](CO)c2cc(Cl)cc(OC(F)(F)F)c2)cc1 [Example 11, Ph(3-Cl)(5-OCF3)—(S)CH(CH2OH)C(O)-Aze-Pab(OMe)] |  | converted to the corresponding active inhibitor (free amidine) | converted to the corresponding active inhibitor (free amidine) |
| CON=C(N)c1ccc(CNC(=O)[C@@H]2CCN2C(=O)[C@H](O)c2cc(Cl)cc(OC(F)F)c2)cc1 [Example 12, Ph(3-Cl)(5-OCHF2)—(R)CH(OH)C(O)-Aze-Pab(OMe)] |  | converted to the corresponding active inhibitor (free amidine) | converted to the corresponding active inhibitor (free amidine) |
| CON=C(N)c1ccc(CNC(=O)[C@@H]2CCN2C(=O)[C@H](O)c2cc(Cl)cc(OCC(F)(F)F)c2)cc1 [Example 16, Ph(3-Cl)(5-OCH2CF3)—(R)CH(OH)C(O)-Aze-Pab(OMe)] |  | converted to the corresponding active inhibitor (free amidine) | converted to the corresponding active inhibitor (free amidine) |
| CON=C(N)c1ccc(CNC(=O)[C@@H]2CCN2C(=O)[C@H](O)c2cc(Cl)cc(OCC(F)F)c2)cc1 [Example 18, Ph(3-Cl)(5-OCH2CHF2)—(R)CH(OH)C(O)-Aze-Pab(OMe)] |  | converted to the corresponding active inhibitor (free amidine) | converted to the corresponding active inhibitor (free amidine) |
| CON=C(N)c1ccc(CNC(=O)[C@@H]2CCN2C(=O)[C@H](O)c2cc(Cl)cc(OCF)c2)cc1 [Example 20, Ph(3-Cl)(5-OCH2F)—(R)CH(OH)C(O)-Aze-Pab(OMe)] |  | converted to the corresponding active inhibitor (free amidine) | converted to the corresponding active inhibitor (free amidine) |
| CON=C(N)c1ccc(CNC(=O)[C@@H]2CCN2C(=O)[C@H](O)c2cc(Cl)cc(OCCF)c2)cc1 [Example 22, Ph(3-Cl)(5-OCH2CH2F)—(R)CH(OH)C(O)-Aze-Pab(OMe)] |  | converted to the corresponding active inhibitor (free amidine) | converted to the corresponding active inhibitor (free amidine) |
| CON=C(N)c1ccc(CNC(=O)[C@@H]2CCN2C(=O)[C@H](O)c2cc(Cl)cc(OC(CF)CF)c2)cc1 [Example 24, Ph(3-Cl)(5-OCH(CH2F)2)—(R)CH(OH)C(O)-Aze-Pab(OMe)] |  | converted to the corresponding active inhibitor (free amidine) | converted to the corresponding active inhibitor (free amidine) |
| CON=C(N)c1ccc(CNC(=O)[C@@H]2CCN2C(=O)[C@H](O)c2cc(F)cc(OC(F)F)c2)cc1 [Example 26, Ph(3-F)(5-OCHF2)—(R)CH(OH)C(O)-Aze-Pab(OMe)] |  | converted to the corresponding active inhibitor (free amidine) | converted to the corresponding active inhibitor (free amidine) |
| CON=C(N)c1ccc(CNC(=O)[C@@H]2CCCN2C(=O)[C@H](O)c2cc(Cl)cc(OC(F)F)c2)cc1 [Example 33, Ph(3-Cl)(5-OCHF2)—(R)CH(OH)—C(O)-Pro-Pab(OMe)] |  | converted to the corresponding active inhibitor (free amidine) | converted to the corresponding active inhibitor (free amidine) |
| CO/N=C(\N)c1cnc(CNC(=O)[C@@H]2CCN2C(=O)[C@H](O)c2cc(Cl)cc(OC(F)F)c2)nc1 [Example 37, Ph(3-Cl)(5-OCHF2)—(R)CH(OH)C(O)-Aze-NH—CH2-((5-methoxyamidino)-2-pyrimidinyl)] |  | converted to the corresponding active inhibitor (free amidine) | converted to the corresponding active inhibitor (free amidine) |
| CO/N=C(\N)c1cc(F)c(CNC(=O)[C@@H]2CCN2C(=O)[C@H](O)c2cc(Cl)cc(OC(F)F)c2)c(F)c1 [Example 40, Ph(3-Cl)(5-OCHF2)—(R)CH(OH)C(O)-Aze-Pab(2,6-diF)(OMe)] |  | converted to the corresponding active inhibitor (free amidine) | converted to the corresponding active inhibitor (free amidine) |
| CCON=C(N)c1ccc(CNC(=O)[C@@H]2CCN2C(=O)[C@H](O)c2cc(Cl)cc(OC(F)F)c2)cc1 [Example 43, Ph(3-Cl)(5-OCHF2)—(R)CH(OH)C(O)-Aze-Pab(OEt)] |  | converted to the corresponding active inhibitor (free amidine) | converted to the corresponding active inhibitor (free amidine) |
| CC(C)ON=C(N)c1ccc(CNC(=O)[C@@H]2CCN2C(=O)[C@H](O)c2cc(Cl)cc(OC(F)F)c2)cc1 [Example 45, Ph(3-Cl)(5-OCHF2)—(R)CH(OH)C(O)-Aze-Pab(OiPr)] |  | converted to the corresponding active inhibitor (free amidine) | converted to the corresponding active inhibitor (free amidine) |
| Ph(3-Br)(5-OCHF2)—(R)CH(OH)C(O)-Aze-Pab(OMe) [Example 29] |  | converted to the corresponding active inhibitor (free amidine) | converted to the corresponding active inhibitor (free amidine) |
| Ph(3-Cl)(5-OCHF2)—(R)CH(OH)C(O)-Aze-Pab(OcBu) [Example 1] |  | converted to the corresponding active inhibitor (free amidine) | converted to the corresponding active inhibitor (free amidine) |
